US20260048062A1, “FUSED AMINO PYRIMIDINE COMPOUNDS FOR TREATMENT OF PSYCHOSIS AND PSYCHOTIC DISORDERS” (Ovid Therapeutics Inc., priority 2024, published 2026)

Target: T1, KCC2 (Homo sapiens, UniProt Q9H2X9)
T1 construct: expressed in transfected cells; host or cells: HEK-293 (ATCC CRL-1573), transient transfection
T1 sequence (Q9H2X9 1-1116 isoform Q9H2X9-2): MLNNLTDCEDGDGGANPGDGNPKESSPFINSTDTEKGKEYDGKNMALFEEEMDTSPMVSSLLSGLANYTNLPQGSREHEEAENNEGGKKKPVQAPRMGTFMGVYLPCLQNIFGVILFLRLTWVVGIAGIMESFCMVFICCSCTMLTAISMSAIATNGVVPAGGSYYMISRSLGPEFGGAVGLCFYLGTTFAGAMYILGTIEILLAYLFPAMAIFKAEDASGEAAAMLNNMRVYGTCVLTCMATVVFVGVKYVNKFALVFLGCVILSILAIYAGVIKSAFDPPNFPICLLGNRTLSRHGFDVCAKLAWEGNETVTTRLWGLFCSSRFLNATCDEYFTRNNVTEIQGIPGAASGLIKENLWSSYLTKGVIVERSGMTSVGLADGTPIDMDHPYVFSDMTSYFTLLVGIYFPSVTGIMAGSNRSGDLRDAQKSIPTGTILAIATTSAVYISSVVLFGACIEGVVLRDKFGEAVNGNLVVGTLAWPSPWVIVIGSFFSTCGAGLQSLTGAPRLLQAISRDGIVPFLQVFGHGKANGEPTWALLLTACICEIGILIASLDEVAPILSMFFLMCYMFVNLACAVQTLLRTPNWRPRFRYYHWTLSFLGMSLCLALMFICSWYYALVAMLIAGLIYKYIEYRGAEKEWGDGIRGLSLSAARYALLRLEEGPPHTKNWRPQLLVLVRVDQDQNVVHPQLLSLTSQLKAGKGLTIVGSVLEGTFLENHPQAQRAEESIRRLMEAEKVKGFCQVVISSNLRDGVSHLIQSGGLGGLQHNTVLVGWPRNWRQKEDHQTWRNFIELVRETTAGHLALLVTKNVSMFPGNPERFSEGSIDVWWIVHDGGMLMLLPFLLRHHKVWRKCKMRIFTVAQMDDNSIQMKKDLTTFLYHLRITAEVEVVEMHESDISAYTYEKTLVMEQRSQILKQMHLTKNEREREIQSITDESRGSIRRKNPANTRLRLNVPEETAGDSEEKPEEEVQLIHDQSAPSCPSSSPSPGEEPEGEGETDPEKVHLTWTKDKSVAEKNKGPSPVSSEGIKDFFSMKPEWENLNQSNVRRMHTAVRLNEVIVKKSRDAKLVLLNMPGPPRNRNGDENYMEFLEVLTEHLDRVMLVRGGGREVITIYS
Test: FLIPR Tl+ flux assay, HEK-293 cells expressing KCC2
Type: cell-based
Conditions: saturating concentration of 3 μM, 1% BCD vehicle
Experimental: A multi-tiered high-throughput screening assay was used, leveraging a proprietary library of 1.3 million small molecule compounds from AstraZeneca (Cambridge, UK) to identify chemical entities capable of activating KCC2. A single point concentration of 30 μM was used to identify potassium flux using an established thallium (TI+) influx FLIPR assay as the primary read out in HEK-293 cells overexpressing KCC2 (Cardarelli et al., Nat. Med. 23, 1394-1396 (2017); Conway et al., J Biol Chem 292, 21253-21263 (2017); Lee et al., 2022, supra).
Cell Culture and biotinylation. […]
FLIPR TI Flux assay. HEK-293 cells were washed with HBSS, and then incubated with loading buffer containing TI sensitive fluorescent dye (https://www.moleculardevices.com), 20 μM bumetanide 20 μM ouabain and 2.5 mM probenecid for 1 h at room temperature (RT) under control conditions or with drugs in the dark using a FlexStation 3 microplate reader (Molecular Devices) and imaged […] for 30 min. Stimulus buffer was added containing 5 mM K^+/0.5 mM Tl^+ and cells were imaged every 1.5 over a 190 second time course The initial rate Tl^+ uptake (Relative Fluorescence Units (RFU) per second) was determined following addition of the stimulus buffer as outlined previously (Conway et al., 2017, supra) (Lee et al., 2022, supra). […]

C[C@@H]1CN(c2nc3c(c(Nc4ccc(C5CCCCC5)cc4)n2)COC3)CCO1 [Compound A, (R)—N-(4-cyclohexylphenyl)-2-(2-methylmorpholino)-5,7-dihydrofuro[3,4-d]pyrimidin-4-amine]
maximum potentiation of KCC2: 90%
